According to publication PMC9217908, “Screening of commonly prescribed drugs for effects on the CAT1-mediated transport of L-arginine and arginine derivatives” (Amino Acids, 2022):
Like-named read-outs stand apart in the source and are kept apart here.

Legend:
Experiment in all cases: cell-based
[1] = target: T1, CAT1 (cationic amino acid transporter 1, CAT1/SLC7A1) (Homo sapiens, UniProt P30825); parameters: species or system HEK-CAT1 (HEK293 stably transfected); Inhibition of net CAT1-mediated [3H]-L-arginine (100 uM) uptake, 5 min, scintillation counting, vector control subtracted; settings: HEK293, L-arginine 100 uM as substrate; for inhibition at 20 µM: read-out: % Inhibition of L-arginine uptake at 20 µM; for inhibition at 200 µM: read-out: % Inhibition of L-arginine uptake at 200 µM
T1 construct: full-length human transporter stably transfected in HEK cells (HEK-CAT1); net uptake against HEK-VC vector control cells
Experimental: (§1) Uptake and inhibition assays using HEK-CAT1 and HEK-VC cells and L-arginine, L-homoarginine, and ADMA as substrates were performed using the protocol described (Strobel et al. [2012]; Chafai et al. [2017]). Briefly, after incubation, the supernatant was replaced with transport buffer containing [^3H]- L-arginine for 5 min and 2.5 min for medium containing [^3H]-L-homoarginine or [^3H]-ADMA with or without the test compound. The reference drugs were screened at concentrations of 20 µM (Figs. 1A, 2A, and 3A) and 200 µM (Figs. 1B, 2B, and 3B). […] The net uptake was determined by subtracting the total amount taken up by control cells from the amount taken up by CAT1-expressing cells, which was expressed as a percentage of the amount taken up by the control. To determine the inhibitory effects of the drugs on CAT1-mediated transport of L-arginine, L-homoarginine, or ADMA, the control was measured in the absence of the potential inhibitor. The value for the percent inhibition was calculated as: Inhibition (%) = 100 – (V/V0 ^* 100), where V and V0 are the net uptake rates (uptake into HEK-CAT1 cells—uptake into HEK-VC cells) with and without test drugs, respectively. […] Each bar represents the effect of one compound on CAT1-mediated L-arginine (100 μM) uptake as percent inhibition. Data were obtained from at least two independent experiments performed in triplicate (n = 6–9) and each test data from the independent experiment were normalized to the respective control data to get the value of percent inhibition. Negative inhibition values indicate stimulated CAT1-mediated uptake. Data were analyzed using one-way ANOVA and Dunnett’s multiple comparison test with p < 0.05. Bars showing a statistically significant inhibition or transport stimulation are shaded in black

[2] = target: T1, CAT1 (cationic amino acid transporter 1, CAT1/SLC7A1); parameters: species or system HEK-CAT1 (HEK293 stably transfected); Inhibition of net CAT1-mediated [3H]-ADMA (1 uM) uptake, 2.5 min, scintillation counting, vector control subtracted; settings: HEK293, ADMA 1 uM as substrate; for inhibition at 20 µM: read-out: % Inhibition of ADMA uptake at 20 µM; for inhibition at 200 µM: read-out: % Inhibition of ADMA uptake at 200 µM
Experimental: as §1, with “ADMA (1” for “L-arginine (100”

[3] = target: T1, CAT1 (cationic amino acid transporter 1, CAT1/SLC7A1); parameters: species or system HEK-CAT1 (HEK293 stably transfected); Inhibition of net CAT1-mediated [3H]-L-homoarginine (1 uM) uptake, 2.5 min, scintillation counting, vector control subtracted; settings: HEK293, L-homoarginine 1 uM as substrate; for inhibition at 20 µM: read-out: % Inhibition of L-homoarginine uptake at 20 µM; for inhibition at 200 µM: read-out: % Inhibition of L-homoarginine uptake at 200 µM
Experimental: as §1, with “L-homoarginine (1” for “L-arginine (100”

T1 sequence (P30825 whole entry): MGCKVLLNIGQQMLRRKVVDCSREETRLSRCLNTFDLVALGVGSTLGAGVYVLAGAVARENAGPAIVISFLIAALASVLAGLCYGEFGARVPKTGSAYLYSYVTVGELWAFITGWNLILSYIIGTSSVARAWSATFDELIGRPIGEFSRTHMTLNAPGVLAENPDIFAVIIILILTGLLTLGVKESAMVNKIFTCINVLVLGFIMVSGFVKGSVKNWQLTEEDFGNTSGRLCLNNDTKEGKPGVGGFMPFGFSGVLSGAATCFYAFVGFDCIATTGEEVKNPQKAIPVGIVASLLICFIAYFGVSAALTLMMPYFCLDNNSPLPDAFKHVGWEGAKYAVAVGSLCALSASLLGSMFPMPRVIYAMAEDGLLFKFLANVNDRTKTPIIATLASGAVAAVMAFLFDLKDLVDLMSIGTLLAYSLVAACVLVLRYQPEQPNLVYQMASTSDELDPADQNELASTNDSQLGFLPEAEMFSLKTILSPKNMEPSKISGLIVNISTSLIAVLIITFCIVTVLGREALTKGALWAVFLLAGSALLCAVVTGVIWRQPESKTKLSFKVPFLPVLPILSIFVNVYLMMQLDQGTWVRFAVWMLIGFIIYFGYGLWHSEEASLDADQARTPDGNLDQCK

Compound	inhibition at 20 µM [1] [%]	inhibition at 200 µM [1] [%]	inhibition at 20 µM [2] [%]	inhibition at 200 µM [2] [%]	inhibition at 20 µM [3] [%]	inhibition at 200 µM [3] [%]
O[C@@H](CNC[C@H](O)[C@H]1CCc2cc(F)ccc2O1)[C@@H]1CCc2cc(F)ccc2O1 (racemic) [Nebivolol]	5.2 ± 3	1.3 ± 2.9	-2.9 ± 1.7	-6.6 ± 15.4	-4.6 ± 1.9	0.3 ± 3.1
Nc1nc(NC2CC2)c2ncn([C@H]3C=C[C@@H](CO)C3)c2n1 [Abacavir]	-0.9 ± 1.81	-12.4 ± 6	-4.3 ± 2.2	-78.1 ± 1.9	-3.1 ± 2	-9.8 ± 1.7
CC(=O)Nc1ccc(O)cc1 [Acetaminophen]	6.6 ± 4.9	2.4 ± 1.6	-14.7 ± 3.8	-3.9 ± 3.4	8.1 ± 4.7	4.4 ± 0.7
CC(=O)Nc1nnc(S(N)(=O)=O)s1 [Acetazolamide]	-12.8 ± 12.9	8.9 ± 3.9	-1.5 ± 0.9	9.7 ± 1.9	-10.9 ± 11.9	8.8 ± 2.1
CC(=O)N[C@@H](CS)C(=O)O [Acetylcysteine]	-6.6 ± 3.7	4.6 ± 3.3	3.2 ± 3.2	-6.1 ± 4.3	-9 ± 1.5	7.5 ± 1.3
Oc1ncnc2[nH]ncc12 [Allopurinol]	5 ± 16.4	14.1 ± 9.6	16.9 ± 2.6	2 ± 7		-2.6 ± 1.6
Cc1nnc2n1-c1ccc(Cl)cc1C(c1ccccc1)=NC2 [Alprazolam]	-3.9 ± 5.3	8 ± 2.7	5.8 ± 3.8	4.1 ± 9.5	-4.3 ± 5.2	9.6 ± 1
NC12CC3CC(CC(C3)C1)C2 [Amantadine]	-14.2 ± 7.4	-76 ± 4.5	5.3 ± 3	-5.7 ± 11.1	11.9 ± 5.6	-19.7 ± 2.6
N=C(N)NC(=O)c1nc(Cl)c(N)nc1N [Amiloride]	-0.1 ± 9.7	10.9 ± 3.9	1.5 ± 3.2	-17.1 ± 2.3	1.5 ± 3.2	12.6 ± 2.6
CN(C)CCC=C1c2ccccc2CCc2ccccc21 [Amitriptyline]	35.9 ± 3.6	26.9 ± 4.7	5.6 ± 2.9	-13.4 ± 3	0.6 ± 1.7	29.7 ± 3.2
CCOC(=O)C1=C(COCCN)NC(C)=C(C(=O)OC)C1c1ccccc1Cl (stereo not drawn) [Amlodipine]	-3.9 ± 5.2	-2.6 ± 3.9	-7.3 ± 1.7	4 ± 9.5	-9.3 ± 3.3	-3.9 ± 4.6
CC1(C)S[C@@H]2[C@H](NC(=O)[C@H](N)c3ccc(O)cc3)C(=O)N2[C@H]1C(=O)O [Amoxicillin]	14.9 ± 2	5.9 ± 2.9	2.7 ± 5.9	10.2 ± 3.2	13.3 ± 1	8.8 ± 1.1
CC1(C)S[C@@H]2[C@H](NC(=O)[C@H](N)c3ccccc3)C(=O)N2[C@H]1C(=O)O [Ampicillin]	-2.5 ± 2.7	6.7 ± 1.4	20.2 ± 2.8	-4.1 ± 2.8	-2.5 ± 2.7	-6.6 ± 3.6
Cc1cc(=O)n(-c2ccccc2)n1C [Antipyrine]	-5.1 ± 7.2	-12.7 ± 2.5	1.9 ± 2.5	-1.2 ± 6.1	-8.2 ± 6	12.8 ± 1.4
CC[C@H]1OC(=O)[C@H](C)[C@@H](O[C@H]2C[C@@](C)(OC)[C@@H](O)[C@H](C)O2)[C@H](C)[C@@H](O[C@@H]2O[C@H](C)C[C@H](N(C)C)[C@H]2O)[C@](C)(O)C[C@@H](C)CN(C)[C@H](C)[C@@H](O)[C@]1(C)O [Azithromycin]	7 ± 7.2	16.7 ± 5.2	2.8 ± 3.4	12.9 ± 3.7	20.8 ± 3.3	26.8 ± 2.3
CCOC(=O)[C@H](CCc1ccccc1)N[C@H]1CCc2ccccc2N(CC(=O)O)C1=O [Benazepril]	1.1 ± 4.5	2.7 ± 6	28.7 ± 4.6	3.1 ± 3.8	1.1 ± 4.5	5.8 ± 2.4
CCc1oc2ccccc2c1C(=O)c1cc(Br)c(O)c(Br)c1 [Benzbromarone]	-12.4 ± 6.1	-31.3 ± 4.9	-6.9 ± 4.6	-13.2 ± 5.9	-10.8 ± 5.3	-23.2 ± 1.6
C[C@]12CC[C@@H]3c4ccc(O)cc4CC[C@H]3[C@@H]1CC[C@@H]2O [Beta estradiol]	0.3 ± 4.5	-19.1 ± 7.2	-9.8 ± 7.2	-32.9 ± 6.4	-0.1 ± 4.2	-13.7 ± 11.3
CC(C)NCC(O)COc1ccc(COCCOC(C)C)cc1 (stereo not drawn) [Bisoprolol]	-13.1 ± 0.7	-17.2 ± 15.5	-2.8 ± 1.6	16.2 ± 4.2	-11.1 ± 1.9	-14.9 ± 2.5
CCC(C)(C)C(=O)O[C@H]1C[C@@H](C)C=C2C=C[C@H](C)[C@H](CC[C@@H]3C[C@@H](O)CC(=O)O3)[C@H]21 [Simvastatin]	-4.1 ± 0.6	-10.5 ± 3.3	-18.1 ± 15	-4.2 ± 3.5		
